# What was measured:
# [1] = target: T1, rat TRPV1 heterologously expressed in Chinese hamster ovary (CHO) cells (Rattus norvegicus, UniProt O35433); experiment: functional 45Ca2+ uptake assay, antagonism of capsaicin; type: cell-based; settings: 24 and 28 compared to 5b and 5c, respectively
# [2] = target: T1, rat TRPV1 heterologously expressed in Chinese hamster ovary (CHO) cells; experiment: binding competition assay with [3H]RTX; settings: respectively; for increases in binding affinity: 24 and 28 compared to 5b and 5c; for increase in binding affinity: 19 and 20 compared to (R)-5a and (S)-5a
# T1 sequence (O35433 whole entry): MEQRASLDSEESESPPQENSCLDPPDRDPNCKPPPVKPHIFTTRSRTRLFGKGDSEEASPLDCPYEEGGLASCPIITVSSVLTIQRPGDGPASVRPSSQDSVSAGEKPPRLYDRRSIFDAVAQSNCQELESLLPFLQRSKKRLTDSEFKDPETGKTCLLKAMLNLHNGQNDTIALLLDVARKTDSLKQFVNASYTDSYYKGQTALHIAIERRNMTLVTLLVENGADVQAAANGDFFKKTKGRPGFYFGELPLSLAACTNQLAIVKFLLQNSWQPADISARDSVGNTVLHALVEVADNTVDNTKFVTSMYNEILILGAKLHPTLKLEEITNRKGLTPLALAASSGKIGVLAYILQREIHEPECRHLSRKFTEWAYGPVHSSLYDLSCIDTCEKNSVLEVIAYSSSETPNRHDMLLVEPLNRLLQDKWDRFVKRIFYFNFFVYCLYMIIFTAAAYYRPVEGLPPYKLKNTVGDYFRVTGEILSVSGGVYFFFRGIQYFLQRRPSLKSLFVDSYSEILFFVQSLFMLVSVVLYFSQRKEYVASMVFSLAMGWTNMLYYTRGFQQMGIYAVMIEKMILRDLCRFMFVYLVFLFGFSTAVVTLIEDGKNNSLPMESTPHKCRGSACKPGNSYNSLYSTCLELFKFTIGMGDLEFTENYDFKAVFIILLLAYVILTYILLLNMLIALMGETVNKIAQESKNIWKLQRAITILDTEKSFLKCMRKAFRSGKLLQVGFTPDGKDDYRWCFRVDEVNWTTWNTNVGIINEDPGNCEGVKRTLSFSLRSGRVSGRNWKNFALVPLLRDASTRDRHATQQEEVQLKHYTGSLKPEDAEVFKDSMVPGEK
Structure (SMILES),increases in antagonism [1],increases in binding affinity [2],increase in binding affinity [2]
C[C@@H](NC(=S)NCC(COC(=O)C(C)(C)C)Cc1ccc(C(C)(C)C)cc1)c1ccc(NS(C)(=O)=O)cc1 (stereo partly drawn) [compound 28],4 fold,6 fold,–
C[C@@H](NC(=S)NC[C@H](COC(=O)C(C)(C)C)Cc1ccccc1)c1ccc(NS(C)(=O)=O)cc1 [compound 19],–,–,~10 fold
Cc1ccc(CC(CNC(=S)N[C@H](C)c2ccc(NS(C)(=O)=O)cc2)COC(=O)C(C)(C)C)cc1C (stereo partly drawn) [compound 24],10 fold,5 fold,–
C[C@@H](NC(=S)NC[C@@H](COC(=O)C(C)(C)C)Cc1ccccc1)c1ccc(NS(C)(=O)=O)cc1 [compound 20],–,–,~10 fold

# — paper PMC6957243 (Bioorganic & medicinal chemistry letters, 2014)
